According to ChEMBL document CHEMBL4017503, “Identification of a New Zinc Binding Chemotype by Fragment Screening” (J Med Chem, 2017):

System: not listed separately
Assay: Dissociation constant, pKa of the compound
Assay type: physicochemical

Row | pKa | Structure (SMILES)
1 | 5.5 | O=C1NC(=O)C(c2ccccc2)O1 (stereo not given) [PEMOLINE DIONE]

Molecular target: Carbonic anhydrase 2 (Homo sapiens, UniProt P00918)
Assay: Binding affinity to human carbonic anhydrase 2 by surface plasmon resonance spectrometry

Row | Structure (SMILES) | Kd
2 | O=C1NC(=O)C(c2ccccc2)N1 (stereo not given) | > 2000 µM
3 | O=C1NC(=O)C(Cc2ccccc2)N1 (stereo not given) | > 2000 µM
4 | COc1ccc(/C=C2\SC(=O)NC2=O)c(OC)c1 | > 2000 µM
5 | COc1ccc(/C=C2\NC(=O)NC2=O)c(OC)c1 | > 2000 µM
6 | COc1ccc(/C=C2\NC(=S)NC2=O)c(OC)c1 | > 2000 µM

Results, then the compound that gave them:

Row | Kd | Structure (SMILES)
7 | > 2000 µM | O=C1NC(=O)/C(=C/c2ccccc2)N1
8 | > 2000 µM | COc1ccc(CC2NC(=O)NC2=O)c(OC)c1 (stereo not given)
9 | > 2000 µM | CC1(C)OC(=O)NC1=O [DIMETHADIONE]
10 | > 2000 µM | CN1C(=O)OC(C)(C)C1=O [TRIMETHADIONE]
